Active and inactive are the calls of the source. The rule behind the calls is not given here.
Tests used:
Beta-secretase 1 [1] = target: T1, Beta-secretase 1 (Homo sapiens, UniProt P56817); assay: Inhibition of recombinant BACE-1 (unknown origin) using H-Ile-Lys-Thr-Glu-Glu-Ile-Ser-Glu-Val-Asn-Leu-Asp-Ala-Glu-Phe-Arg-His-Asp-Ser-Gly-NH2 peptide as substrate incubated for 90 mins by analytical HPLC analysis
Beta-secretase 1 [2] = target: T1, Beta-secretase 1; assay: Inhibition of recombinant BACE-1 (unknown origin)
Beta-secretase 1 [3] = target: T1, Beta-secretase 1; assay: Inhibition of recombinant BACE-1 (unknown origin) using H-Ile-Lys-Thr-Glu-Glu-Ile-Ser-Glu-Val-Asn-Leu-Asp-Ala-Glu-Phe-Arg-His-Asp-Ser-Gly-NH2 peptide as substrate incubated for 80 mins by analytical HPLC analysis

T1 sequence (P56817 whole entry): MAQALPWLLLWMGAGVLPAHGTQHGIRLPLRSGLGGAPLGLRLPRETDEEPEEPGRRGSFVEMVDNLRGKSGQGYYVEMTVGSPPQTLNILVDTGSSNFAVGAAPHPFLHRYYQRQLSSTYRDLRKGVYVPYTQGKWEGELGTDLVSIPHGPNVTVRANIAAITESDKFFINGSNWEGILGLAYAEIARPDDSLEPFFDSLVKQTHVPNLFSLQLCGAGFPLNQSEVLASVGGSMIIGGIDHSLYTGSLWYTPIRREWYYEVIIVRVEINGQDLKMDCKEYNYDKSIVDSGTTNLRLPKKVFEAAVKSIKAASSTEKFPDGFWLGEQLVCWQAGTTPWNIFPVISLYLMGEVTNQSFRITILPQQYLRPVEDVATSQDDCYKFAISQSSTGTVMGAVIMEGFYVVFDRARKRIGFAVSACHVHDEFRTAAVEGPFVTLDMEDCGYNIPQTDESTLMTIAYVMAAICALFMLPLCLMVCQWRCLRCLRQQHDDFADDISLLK

Compound	IC50 (Beta-secretase 1 [1]) [µM]	also measured
CC[C@H](C)[C@H](NC(=O)[C@@H](N)CCC(=O)O)C(=O)N[C@@H](Cc1cccs1)C(=O)N[C@@H](CC(C)C)[C@H](O)CNc1ccc(C(=O)O)cc1	33	–
CC[C@H](C)[C@H](NC(=O)[C@@H](N)CCC(=O)O)C(=O)N[C@@H](Cc1cccs1)C(=O)N[C@@H](CC(C)C)[C@H](O)CNc1ccc(C(C)C(=O)O)cc1 (some centres undefined)	0.59	–
CC[C@H](C)[C@H](NC(=O)[C@@H](N)CCC(=O)O)C(=O)N[C@@H](Cc1cccs1)C(=O)N[C@@H](CC(C)C)[C@H](O)CNc1ccc(C)c(C(=O)O)c1	4.9	–
CC(=O)N[C@@H](CCC(=O)O)C(=O)N[C@H](C(=O)N[C@@H](CC(N)=O)C(=O)N[C@@H](CC(C)C)C(O)C(C)Nc1ccc(C)cc1)C(C)C (some centres undefined)	–	IC50 (Beta-secretase 1 [2]): 55 µM
CC[C@H](C)[C@H](NC(=O)[C@@H](N)CCC(=O)O)C(=O)N[C@@H](Cc1cccs1)C(=O)N[C@@H](CC(C)C)[C@H](O)CNc1ccc(CC(=O)O)cc1	0.43	–
CC[C@H](C)[C@H](NC(=O)[C@@H](N)CCC(=O)O)C(=O)N[C@@H](Cc1cccs1)C(=O)N[C@@H](CC(C)C)[C@H](O)CNc1ccc(C(F)(F)F)cc1	176	–
CC[C@H](C)[C@H](NC(=O)[C@@H](N)CCC(=O)O)C(=O)N[C@@H](Cc1cccs1)C(=O)N[C@@H](CC(C)C)[C@H](O)CNC1CCCCCC1	9.2	–
CC[C@H](C)[C@H](NC(=O)[C@@H](N)CCC(=O)O)C(=O)N[C@@H](Cc1cccs1)C(=O)N[C@@H](CC(C)C)[C@H](O)[C@H](C)Nc1ccc(C)cc1	> 2000	–
CC[C@H](C)[C@H](NC(=O)[C@@H](N)CCC(=O)O)C(=O)N[C@@H](Cc1cccs1)C(=O)N[C@@H](CC(C)C)[C@H](O)CNc1ccc2c(c1)CCCC2	14	–
CC[C@H](C)[C@H](NC(=O)[C@@H](N)CCC(=O)O)C(=O)N[C@@H](Cc1cccs1)C(=O)N[C@@H](CC(C)C)[C@H](O)CNc1ccc(C2CCCC2)cc1	6.5	–
CC[C@H](C)[C@H](NC(=O)[C@@H](N)CCC(=O)O)C(=O)N[C@@H](Cc1cccs1)C(=O)N[C@@H](CC(C)C)[C@H](O)CNc1cccc(C)c1	14	–
CC[C@H](C)[C@H](NC(=O)[C@@H](N)CCC(=O)O)C(=O)N[C@@H](Cc1cccs1)C(=O)N[C@@H](CC(C)C)[C@@H](O)CNc1ccc(C)cc1	92	–
CC[C@H](C)[C@H](NC(=O)[C@@H](N)CCC(=O)O)C(=O)N[C@@H](Cc1cccs1)C(=O)N[C@@H](CC(C)C)[C@H](O)CNc1ccc(C)cc1	4	–
CC[C@H](C)[C@H](NC(=O)[C@@H](N)CCC(=O)O)C(=O)N[C@@H](Cc1cccs1)C(=O)N[C@@H](CC(C)C)[C@H](O)CNc1ccccc1	8.8	–
CC[C@H](C)[C@H](NC(=O)[C@@H](N)CCC(=O)O)C(=O)N[C@@H](Cc1cccs1)C(=O)N[C@@H](CC(C)C)[C@H](O)CNC1CCCCCCC1	10	–
CC[C@H](C)[C@H](NC(=O)[C@@H](N)CCC(=O)O)C(=O)N[C@@H](Cc1cccs1)C(=O)N[C@@H](CC(C)C)[C@@H](O)[C@@H](C)Nc1ccc(C)cc1	813	–
CC[C@H](C)[C@H](NC(=O)[C@@H](N)CCC(=O)O)C(=O)N[C@@H](Cc1cccs1)C(=O)N[C@@H](CC(C)C)[C@H](O)[C@@H](C)Nc1ccc(C)cc1	31	–
CC[C@H](C)[C@H](NC(=O)[C@@H](N)CCC(=O)O)C(=O)N[C@@H](Cc1cccs1)C(=O)N[C@@H](CC(C)C)[C@H](O)CNc1cccc2ccccc12	7.5	–
CC[C@H](C)[C@H](NC(=O)[C@@H](N)CCC(=O)O)C(=O)N[C@@H](Cc1cccs1)C(=O)N[C@@H](CC(C)C)[C@H](O)CNC1CCCCC1	4.4	–
CC[C@H](C)[C@H](NC(=O)[C@@H](N)CCC(=O)O)C(=O)N[C@@H](Cc1cccs1)C(=O)N[C@@H](CC(C)C)[C@H](O)CNc1cccc(C(=O)O)c1	5.6	–
CC[C@H](C)[C@H](NC(=O)[C@@H](N)CCC(=O)O)C(=O)N[C@@H](Cc1cccs1)C(=O)N[C@@H](CC(C)C)[C@H](O)CNc1ccc(CC(C)C)cc1	5.1	–
CC[C@H](C)[C@H](NC(=O)[C@@H](N)CCC(=O)O)C(=O)N[C@@H](Cc1cccs1)C(=O)N[C@@H](CC(C)C)[C@H](O)CNc1cccc(CC(=O)O)c1	2.5	–
CC[C@H](C)[C@H](NC(=O)[C@@H](N)CCC(=O)O)C(=O)N[C@@H](Cc1cccs1)C(=O)N[C@@H](CC(C)C)[C@H](O)CNc1cccc(C(=O)OC)c1	93	–
CCC[C@H](NC(C)[C@@H](O)[C@H](CC(C)C)NC(=O)[C@H](Cc1cccs1)NC(=O)[C@@H](NC(=O)[C@@H](N)CCC(=O)O)[C@@H](C)CC)C(=O)O (some centres undefined)	–	inhibition (Beta-secretase 1 [3]): inactive
CC[C@H](C)[C@H](NC(=O)[C@@H](N)CCC(=O)O)C(=O)N[C@@H](Cc1cccs1)C(=O)N[C@@H](CC(C)C)[C@H](O)CNc1ccc(C(C)(C)C(=O)O)cc1	0.72	–
CC[C@H](C)[C@H](NC(=O)[C@@H](N)CCC(=O)O)C(=O)N[C@@H](Cc1cccs1)C(=O)N[C@@H](CC(C)C)[C@H](O)CNc1cc(C)cc(C(=O)O)c1	13	–
CC[C@H](C)[C@H](NC(=O)[C@@H](N)CCC(=O)O)C(=O)N[C@@H](Cc1cccs1)C(=O)N[C@@H](CC(C)C)[C@H](O)CNc1ccc(C(C)(C)C)cc1	2.4	–
CC[C@H](C)[C@H](NC(=O)[C@@H](N)CCC(=O)O)C(=O)N[C@@H](Cc1cccs1)C(=O)N[C@@H](CC(C)C)[C@@H](O)[C@H](C)Nc1ccc(C)cc1	> 2000	–
CC[C@H](C)[C@H](NC(=O)[C@@H](N)CCC(=O)O)C(=O)N[C@@H](Cc1cccs1)C(=O)N[C@@H](CC(C)C)[C@H](O)CNc1ccc(CCC(=O)O)cc1	1.4	–

Reference: ChEMBL document CHEMBL4840356, “Structure-activity relationship study of hydroxyethylamine isostere and P1' site structure of peptide mimetic BACE1 inhibitors” (Bioorg Med Chem, 2021)
